The source of these data is US6551796B1, “Nucleic acid encoding urate transporter and methods of use thereof” (Mount Sinai School of Medicine, priority 1997, dated 2003).

Holding throughout (assay type): biochemical
Test [1] concerns the target T1, recombinant UAT (urate transporter/channel) (Rattus norvegicus, UniProt P97840, L187H).
T1 construct: 6-histidine metal chelating domain (pRSET A leader) (N); made in house; host or cells: E. coli BL21(DE3)pLysE, vector pRSET A
In words: Channel activity of recombinant rat UAT reconstituted in planar lipid bilayer (patch clamp recording). The conditions noted are these: for effect on channel activity, cis (cytoplasmic) side: agent added to cis chamber / cytoplasmic side of UAT; for concentration that completely blocked channel activity: agent in trans chamber (extracellular side of UAT); for reversibility of block of channel activity: replacing the agent-containing solution with agent-free urate solution. As for the experimental part:
(§1) A mixture of bovine phosphatidyl-ethanolamine (PE, 10 mg/ml), and phosphatidylserine (PS, 10 mg/ml) (Avanti Polar Lipids, Birmingham. Ala.) in a ratio of 1:1 (wt/wt) was evaporated to dryness under nitrogen. The resultant phospholipid pellet was suspended in 48 μl of a solution containing 220 mM KCl, CsCl or Cs2SO4 and 10 mM HEPES-NaOH at pH 7.4. Following the addition of 2 μl recombinant UAT protein (50-100 μg/ml), proteoliposomes were formed by sonicating the mixture for 30 sec at 80 kHz in a bath sonicator (Laboratory Supplies, Hicksville, N.Y.) as described by Leal-Pinto et al. (1995) J. Membrane Biol. 146:123. In some experiments, proteoliposomes were prepared with the same lipids but with 10 μl recombinant HIV-1 Tat protein, as described by Zagury et al. (1996) Cellular Pharm.—AIDS Sciences 3:97 at 380 μg/ml and 40 μl of 220 mM Cs2SO4, 10 mM HEPES-NaOH at pH 7.4. Fresh proteoliposomes were prepared for each experiment.
(§2) The lipid bilayer chamber was identical to that described by Leal-Pinto et al. (1995) J. Membrane Biol. 146:123. The two cups of the plexiglass bilayer chamber were each initially filled with 1 ml of a solution whose electrolyte composition was identical to that in which the proteoliposomes were prepared. A 1:1 (wt/wt) mixture of bovine brain PE (10 mg/ml) and PS (10 mg/ml) (Avanti Polar Lipids) was dried with a nitrogen stream, dissolved in decane (Sigma Chemical Co.) to 50 mg lipid/ml and then painted with a club-shaped glass rod onto a 50 um hole in a Teflon film (Type C-20, 12.5 um thick, Dupont Electronics, Wilmington, Del.) that was fitted between the two cups of the chamber. Offset potentials due to all junction potentials were corrected by using the zero adjust system of the patch clamp amplifier (Model PC-501, Warner Instrument Co.). The voltage was subsequently clamped at varying levels (−100 to +100 mV): voltage was generated and controlled by the patch clamp amplifier. If a stable resistance of at least 100 gigohms and a noise of less than 0.2 pA were maintained, the experiments were initiated.
(§3) Experiments were initiated by adding proteoliposomes to the trans chamber (1 μl of UAT or 5-50 μl of HIV-1 Tat proteoliposomes). The solution was stirred until fusion occurred. Fusion usually occurred within 2-3 minutes of the addition of UAT-containing proteoliposomes, evidenced by the presence of channel gating (clear transitions between the closed and open states). Once fusion occurred the stirrers were stopped and the solution in the trans chamber was replaced with 1 ml of an identical solution, without proteoliposomes, to limit further channel incorporation. In all experiments channel activity was initially evaluated in the presence of symmetrical solutions of 2.5 mM urate in either 220 mM KCl, CsCl, or Cs2SO4, 10 mM HEPES-NaOH, and 0.25 mM CaCl2 at pH 7.4. In some experiments channel activity was compared in the absence and presence of 5 mM Ba^+−. To evaluate channel selectivity, experiments were performed in symmetrical solutions of 2.5 mM urate, but with infinite gradients of K^+, Cs^−, Ca^−−, Cl^− and/or SO4^═ established by using the following combination of buffered solutions in the cis and trans chambers, respectively: a) CsCl and KCl, b) Cs2SO4 and CsCl, and c) Cs2SO4 with Ca^−+ and Cs2SO4 without Ca^−+. Selectivity was also evaluated in symmetrical solutions of 220 mM Cs2SO4, 10 mM HEPES-NaOH, and 0.25 mM CaCl2 at pH 7.4 in the presence of a 10:1 urate gradient: the 2.5 mM urate, buffered Cs2SO4 solution in the trans chamber was replaced with a Cs2SO4 solution containing 0.25 mM urate. In a final group of experiments, channel activity was compared in symmetrical solutions of 2.5 mM urate, 220 mM Cs2SO4, 10 mM HEPES-NaOH, and 0.25 mM CaCl2 at pH 7.4 before and after an increasing amount of non-immune IgG (up to 200 μg) or the IgG fraction of antiporcine uricase (up to 15 μg) was sequentially added to each side of the lipid bilayer. […]
A general note: The patch-clamp technique gives a direct electrical read-out from membranes.

The target in test [2] is T2, hUAT (human urate transporter/channel, galectin 9) (Homo sapiens, UniProt O00182).
T2 construct: 6-histidine tag (N); made in house
Put plainly: Channel activity of recombinant human UAT (galectin 9) reconstituted in lipid bilayer. As for the experimental part:
Galactin 9 was reported to be a secreted neutrophil chemoattractant. However, galectin 9 has more than 75% amino acid homology to the rat urate transporter/channel. To test whether galectin 9 is the human plasma membrane-associated urate transporter channel, cDNA was generated by RT-PCR of RNA from WBC of a normal donor and fused with an amino terminal 6-histidine tag in a bacterial expression vector. Recombinant protein (hUAT) was prepared and then purified on a Ni-NTA column. hUTA was sonicated into liposomes, fused with a lipid bilayed, and channel activity was recorded. Channel activity was only detected in the presence of urate. […] This difference in voltage sensitivity is consistent with the absence of a positively charged amino acid in hUAT in a region of the putative voltage sensing loop within rat UAT.
In a continued search for local blocks of homology between rat and human UAT and known proteins, a highly significant block of homology to copper chaperones was detected in the carboxy terminus of both the rat and human UAT. Based on the possibility that this portion of UAT binds copper, like copper chaperones, experiments were conducted to determine whether copper was able to modulate UAT channel activity. Using rat and human recombinant UAT it was observed that copper plays an important role in modulating channel activity.
The rat and human urate transporter/channel amino acid sequence contains two galactose binding sites. In the molecular model of the urate transporter/channel, both of these sites reside in extracellular domains of the protein. One site is located between the putative first and second transmembrane domain, the second is located between the putative third and fourth transmembrane domains. Experiments indicate that the addition of lactose (less than 50 μM) to the side of the bilayer chamber that is believed to face the extracellular domains of the protein alters the biophysical properties of the human urate transporter channel. […] In vivo, this could result in increased urate excretion and ultimately a reduction in plasma urate concentration.

Test [3] has as its target T3, recombinant UAT (urate transporter/channel) (Rattus norvegicus, UniProt P97840).
T3 construct: 6-histidine metal chelating domain (pRSET A leader) (N); made in house; host or cells: E. coli BL21(DE3)pLysE, vector pRSET A
Put plainly: Channel activity of recombinant rat UAT reconstituted in planar lipid bilayer (patch clamp recording). The conditions noted are these: 2.5 mM urate cis : 2.5 mM oxonate trans. As for the experimental part: as §1, §2, §3

The mark [4] stands for this setting: less than 1 μM copper added to the bathing solution.
The mark [5] stands for this setting: less than 50 μM on the side facing the extracellular domains.

The structures appear in SMILES notation.

T1 sequence (P97840 1-322 isoform P97840-2 L155H): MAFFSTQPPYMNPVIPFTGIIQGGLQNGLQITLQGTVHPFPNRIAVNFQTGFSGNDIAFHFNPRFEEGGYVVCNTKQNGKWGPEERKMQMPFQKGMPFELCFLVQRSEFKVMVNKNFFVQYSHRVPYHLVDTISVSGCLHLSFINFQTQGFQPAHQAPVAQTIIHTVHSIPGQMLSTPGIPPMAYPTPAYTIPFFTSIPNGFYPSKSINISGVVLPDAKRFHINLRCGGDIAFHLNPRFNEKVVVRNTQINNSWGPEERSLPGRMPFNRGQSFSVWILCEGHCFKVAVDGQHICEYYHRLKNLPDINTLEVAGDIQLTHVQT
T2 sequence (O00182 1-323 isoform O00182-2): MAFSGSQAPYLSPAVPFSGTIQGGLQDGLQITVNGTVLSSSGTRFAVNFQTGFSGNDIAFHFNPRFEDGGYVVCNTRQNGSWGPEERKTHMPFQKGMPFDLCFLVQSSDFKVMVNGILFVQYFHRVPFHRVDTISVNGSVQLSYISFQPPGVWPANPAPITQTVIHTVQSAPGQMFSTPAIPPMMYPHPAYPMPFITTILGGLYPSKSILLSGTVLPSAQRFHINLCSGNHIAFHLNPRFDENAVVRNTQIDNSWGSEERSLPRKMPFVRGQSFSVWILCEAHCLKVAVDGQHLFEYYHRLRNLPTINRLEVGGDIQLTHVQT
T3 sequence (P97840 1-322 isoform P97840-2 L155H): as the sequence (P97840 1-322 isoform P97840-2 L155H) above

With `[Ba+2]` [Ba^+−], in test [1] (5 mM, symmetrical 2.5 mM urate and 220 mM KCl), the “effect on channel activity” value is given as “failed to alter channel activity”.

As to `O=C(O)c1cnccn1` [PZA, pyrazinoate], in test [1], the “effect on channel activity, cis (cytoplasmic) side” value (from here on “effect on channel activity, cis”) is “without effect” and the “reversibility of block of channel activity” value is on record as “reversed”. Further, the “concentration that completely blocked channel activity” value in test [1] (mean±SE) was 24.1 ± 8.9 µM.

As to `Nc1ncnc2c1ncn2[C@@H]1O[C@H](CO)[C@@H](O)[C@H]1O` [adenosine], the “effect on channel activity, cis” value in test [1] is “failed to block channel activity”. For the same compound, the “concentration that completely blocked channel activity” value in test [1] (mean±SE) turned out to be 4.6 ± 2.6 µM. Moreover, the “effect on channel activity from the trans side of the bilayer” value in test [2] is listed as “blocked channel activity”.

On to `[Cu]` [copper], for which the “effect on channel activity” value in test [1] (setting [4]) and in test [2] (setting [4]) was “significantly increases channel activity” throughout. Moreover, the “open probability of the human channel after addition” value in test [2] (less than 1 μM copper, from 5-15% before addition) is recorded as 50-60%.

`OC[C@H]1O[C@@H](O[C@H]2[C@H](O)[C@@H](O)C(O)O[C@@H]2CO)[C@H](O)[C@@H](O)[C@H]1O` (some centres unmarked) [lactose]: in test [2] (setting [5]), the effect on current result is recorded as “increase in current” and the “effect on stability of the channel in the lipid bilayer” value is given as “apparent stabilization of the channel”.

For `O=C(O)c1nc(=O)[nH]c(=O)[nH]1` [oxonate], the “channel activity under bi-ionic conditions” value in test [3] was “ceased after approximately one hour”. Moreover, the “effect on channel activity, trans side” value in test [1] (250 μM on the trans side of the channel, symmetrical urate) was “not affected”. The “concentration at which channel activity was 97% blocked” value in test [1] (oxonate in cis (cytoplasmic) chamber, symmetrical 2.5 mM urate, mean±SE, n=3) is 108 ± 16 µM. Also, in test [1], the “reversibility of block of channel activity” value is listed as “reversed”.

For the compound `NC(=O)c1cnccn1` [pyrazinamide], in test [2], the “effect on channel activity from the trans side of the bilayer” value is given as “blocked channel activity”.

As to `O=c1[nH]c(=O)c2[nH]cnc2[nH]1` [xanthine], the “effect on channel activity, cis” value in test [1] is “blocked channel activity”. Also, the “concentration that completely blocked channel activity” value in test [1] (mean±SE) came to 4.6 ± 1.5 µM. For the same compound, the “ratio of blocking concentration, extracellular side versus cytoplasmic face” value in test [1] (complete block of channel activity) is listed as “approximately one-tenth”.
